Measurements as given in paper PMC7555970, “Design, Synthesis and Biological Evaluation of Biphenylglyoxamide-Based Small Molecular Antimicrobial Peptide Mimics as Antibacterial Agents” (International Journal of Molecular Sciences, 2020).

What was measured:
Gram-negative bacteria = system: Gram-negative bacteria; set-up: method as in doi:10.1002/slct.201700336, PMID 28203673; details: previously reported ref 43, 44; cited from earlier work
P. aeruginosa (PA01) = details: no antibacterial activity at the highest concentration tested (250 μM) ref 43; cited from earlier work
E. coli (K12) = details: no antibacterial activity at the highest concentration tested (250 μM) ref 43; cited from earlier work
S. aureus (SA38) [1] = details: previously synthesised N-sulfonylphenylglyoxamide iodide salts ref 43; cited from earlier work
S. aureus (SA38) [2] = experiment: Minimum inhibitory concentration (MIC) assay against S. aureus; format: cell-based, Staphylococcus aureus; details: Staphylococcus aureus
[3] = system: established S. aureus biofilms; set-up: method as in PMID 27405275; details: 4× its MIC (32 μM) ref 52; cited from earlier work

In the case of `CCCCCCCCS(=O)(=O)Nc1ccc(Br)cc1C(=O)C(=O)NCCC[N+](C)(C)C` [Compound 4b], the “antibacterial activity against Gram-negative bacteria” value (Gram-negative bacteria) is listed as “no antibacterial activity”, the “MIC against P. aeruginosa” value (P. aeruginosa (PA01)) is listed as > 250 µM and the “MIC against E. coli” value (E. coli (K12)) is listed as > 250 µM. For the same compound, the “MIC against S. aureus” value (S. aureus (SA38) [1]) was 63 µM.

In the case of `CN(C)CCCNC(=O)C(=O)c1cc(-c2ccccc2)ccc1NC(=O)c1ccc2ccccc2c1` [Compound 25, N-(3-(2-((3-(Dimethylamino)propyl)amino)-2-oxoacetyl)-[1,1’-biphenyl]-4-yl)-2-naphthamide], the melting point is reported as 151.6 to 151.8 °C and the MIC (S. aureus (SA38) [2]) is reported as > 250 µM.

In the case of “LL-37: a natural antimicrobial peptide that is being tested in phase II clinical trials (LLGDFFRKSKEKIGKEFKRIVQRIKDFLRNLVPRTES; Antibacterial peptide LL-37; UniProt P49913 134-170, looked up)”, the “disruption of mature S. aureus biofilms” value [3] is listed as “approximately 40%”.
